For assay [1], the system named is Halomonas elongata DSMZ 2581. Description: Growth of Halomonas elongata on lactate and crotonate as the carbon source (OD600). In kind it is cell-based. The settings on record: 3 g/L crotonic acid alone; MM63 medium, 60 g/L NaCl, pH 8.0. On the procedure:
FIG. 30B: Growth of Halomonas elongata DSMZ 2581 in MM63 medium containing 3 g/L lactate, 3 g/L crotonate, and mixture of 3 g/L lactate and 3 g/L crotonate as indicated. MM63 medium contained 13.61 g/L KH·PO4, 4.21 g/L KOH, 1.98 (NH4)2SO4, 0.0011 g/L FeSO4—H2O 0.25 g/L MgSO4-7H2O, and 60 g/L NaCl set at pH=8.0. Points represent the average of three replicates and error bars are one standard deviation.
Media was prepared with MM63 minimal salts medium directly and used as a growth substrate for Halomonas elongata strain. MM63 minimal salts medium contains 13.61 g/L KH·PO4, 4.21 g/L KOH, 1.98 (NH4)2SO4, 0.0011 g/L FeSO4—H2O 0.25 g/L MgSO4-7H2O, 60 g/L NaCl. […] Assuming linearity in biomass to substrate loading, and assuming the major carbon source was crotonate and/or lactate, the increased optical density over time would indicate a high conversion of the substrates in the Halomonas strain.
Cell density was measured using a spectrophotometric assay detecting absorbance of each well/cuvette at 600 nm. The measurements were performed using a Thermo Scientific Genesys 150 spectrophotometer. A non-inoculated control was used to subtract background absorbance.

The test system of the next assay is WT Halomonas elongata. Put plainly: Growth of WT Halomonas elongata on subcritical water products and ethylene glycol (OD600). As to conditions: 5 g/L ethylene glycol; minimal salts medium, 60 g/L NaCl. Type of assay: cell-based.

Molecules are shown by their SMILES.

Experimental for WT Halomonas elongata: This was prepared with minimal salts medium directly and used as a growth substrate for the WT Halomonas elongata strain.
The SCW product contained 4.1 g/L EG, and the final medium preparation contained ˜1.6 g/L EG.

With `C/C=C/C(=O)O` [crotonate, crotonic acid], in assay [1], the final optical density is on record as 6.0.
With `OCCO` [ethylene glycol], the “final OD600” value in the assay on WT Halomonas elongata worked out at 3.16.

(Values after patent US20250333573A1, “METHOD FOR TEXTILE AND POLYESTER DECONSTRUCTION AND UPCYCLING TO BIOPLASTIC IN A HALOPHILE” (Battelle Memorial Institute, priority 2024, published 2025).)
